Experimental data from patent US9815851B2, “Pyrrolo carboxamides as modulators of orphan nuclear receptor RAR-related orphan receptor-gamma (RORγ, NR1F3) activity and for the treatment of chronic inflammatory and autoimmune diseases” (PHENEX PHARMACEUTICALS AG, priority 2011, dated 2017).
Read-outs that look alike come from different tables or passages of the source.

Assays:
[1] = target: T1, RORγ ligand binding domain (LBD) (Homo sapiens, UniProt P51449); assay: TR-FRET Activity Assay (ligand sensing, RORγ-LBD / coactivator peptide interaction, LANCE); format: biochemical
T1 construct: made in house; host or cells: E. coli BL-21 (BL3), vector pDEST15
T1 sequence (P51449 269-508 limits assumed): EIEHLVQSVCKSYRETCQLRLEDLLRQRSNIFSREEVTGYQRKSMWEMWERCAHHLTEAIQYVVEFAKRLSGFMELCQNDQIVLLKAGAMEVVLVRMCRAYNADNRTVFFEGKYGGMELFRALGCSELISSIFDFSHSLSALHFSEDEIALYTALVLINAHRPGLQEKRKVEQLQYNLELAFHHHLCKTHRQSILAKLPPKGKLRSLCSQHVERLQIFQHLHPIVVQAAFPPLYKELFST

RORγ = target: T2, RORγ (UniProt P51449); assay: RORγ Gal4 Reporter Gene Assay in 293T cells (firefly and renilla luciferase); format: cell-based, human
T2 sequence (P51449 1-518): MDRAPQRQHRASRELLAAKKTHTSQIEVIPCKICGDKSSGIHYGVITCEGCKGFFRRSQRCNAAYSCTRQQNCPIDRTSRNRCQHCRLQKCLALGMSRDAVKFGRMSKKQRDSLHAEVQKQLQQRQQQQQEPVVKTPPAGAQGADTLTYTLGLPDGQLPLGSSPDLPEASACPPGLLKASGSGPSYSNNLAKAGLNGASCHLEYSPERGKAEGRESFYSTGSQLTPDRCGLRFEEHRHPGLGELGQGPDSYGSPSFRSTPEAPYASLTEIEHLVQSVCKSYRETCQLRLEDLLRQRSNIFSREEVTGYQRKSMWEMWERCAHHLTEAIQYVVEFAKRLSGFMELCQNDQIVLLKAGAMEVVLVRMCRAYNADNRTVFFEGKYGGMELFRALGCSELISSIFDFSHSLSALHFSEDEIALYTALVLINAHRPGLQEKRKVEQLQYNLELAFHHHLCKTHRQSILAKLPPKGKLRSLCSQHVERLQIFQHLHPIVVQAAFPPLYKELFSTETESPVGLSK

[2] = first value of the cell FRET/FF/REN, TR-FRET activity assay, read-out: pIC50 (FRET) (converted)
[3] = second value of the cell, Gal4 reporter gene assay in 293T cells, firefly luciferase
[4] = third value of the cell, Gal4 reporter gene assay in 293T cells, renilla normalised luciferase

SMILES | IC50 [1] [nM] | pIC50 (FF) (RORγ) | pIC50 (REN) (RORγ) | IC50 [1, 2] [nM] | pIC50 (FF) (RORγ; [3]) | pIC50 (REN) (RORγ; [4])
Cc1c(C(=O)NCC2(C(N)=O)CCOCC2)cc(-c2ccc(S(=O)(=O)NC(C)(C)C)c(C(C)(C)C)c2)n1CC1CCCCC1 [17/90] | 1580 | 5.8/7.9/8.0 | 5.8/7.9/8.0 |  |  | 
Cc1c(C(=O)NC2CCOCC2)cc(-c2cc(C(F)(F)F)cc(C3(C)CC3)c2)n1CC1CCCCC1 [17/297] |  |  |  | 126 | 7.2 | 7.4
Cc1c(C(=O)NCCC(C)(C)C(=O)O)cc(-c2cc(C(C)(C)C)cc(C(F)(F)F)c2)n1CC1CCCCC1 [17/305] | 2000 | 5.7/6.8/6.7 | 5.7/6.8/6.7 |  |  | 
Cc1c(C(=O)NCC(C)(C)c2nnn[nH]2)cc(-c2cc(C(C)(C)O)cc(C3(C)CC3)c2)n1CC1CCCCC1 [17/309] | 794 | 6.1/6.7/6.8 | 6.1/6.7/6.8 |  |  | 
Cc1c(C(=O)NCC2(O)CCS(=O)(=O)CC2)cc(-c2ccc(S(=O)(=O)NC(C)(C)C)c3ccccc23)n1CC1CCCCC1 [17/268] |  |  |  | 794 | 7.7 | 7.8
Cc1c(C(=O)NC2CCOCC2)cc(-c2cc(Cl)cc(C(=O)NC(C)(C)C)c2)n1CC1CCCCC1 [17/219] |  |  |  | 501 | 6.9 | 7.0
CCN(C(C)(C)C)S(=O)(=O)c1ccc(-c2cc(C(=O)NC3CCOCC3)c(C)n2CC2CCCCC2)cc1C(F)F [17/125] | 79.4 | 7.1/6.4/6/ | 7.1/6.4/6/ |  |  | 
Cc1c(C(=O)NC2CCOCC2)cc(-c2cc3c(c(C(C)(C)C)c2)OCCC3F)n1CC1CCCCC1 (stereo not drawn) [18/4] |  |  |  | 794 | 6.3 | 6.5
Cc1c(C(=O)NC2CSC2)cc(-c2cc(C(C)(C)C)cc(C(C)(C)C)c2)n1CC1CCCCC1 [1/14] | 2000 | 5.7/6.5/6.6 | 5.7/6.5/6.6 |  |  | 
Cc1c(C(N)=O)cc(-c2ccc(C(O)(C(F)(F)F)C(F)(F)F)cc2)n1CC1CCCCC1 [1/45] |  |  |  | 1000 | 5.6 | 5.8
Cc1c(C(=O)N2CC2CO)cc(-c2cc(C(C)(C)C)cc(C(C)(C)C)c2)n1CC1CCCCC1 (stereo not drawn) [17/45] | 1000 | 6.0/6.5/6.4 | 6.0/6.5/6.4 |  |  | 
Cc1c(S(=O)(=O)NC(C)(C)C)ccc(-c2cc(C(=O)NCCC(C)(C)C(=O)O)c(C)n2CC2CCCCC2)c1C(F)(F)F [17/286] |  |  |  | 1260 | 7.4 | 7.5
Cc1c(C(=O)NCCOC(C)C)cc(-c2cc(C(C)(C)C)cc(C(C)(C)C)c2)n1CC1CCCCC1 [1/62] | 316 | 6.5/6.4/6.3 | 6.5/6.4/6.3 |  |  | 
Cc1c(C(=O)NC2COC2)cc(-c2cc(C(C)(C)C)nc(C(C)(C)C)c2)n1CC1CCCCC1 [1/122] |  |  |  | 158 | 7.0 | 7.0
Cc1c(C(=O)N[C@H]2C[C@H](C(=O)O)C2)cc(-c2cc(C(C)(C)C)nc(C3(C)CC3)c2)n1CC1CCCCC1 [17/292] |  |  |  | 1260 | 7.5 | 7.4
Cc1c(C(=O)NC2CCOCC2)cc(-c2ccc(C(=O)NC(C)(C)C)c(C(F)(F)F)c2)n1CC1CCCCC1 [6/8] | 10000 | 5.0/6.8/7.3 | 5.0/6.8/7.3 |  |  | 
COC(C)(C)c1cc(-c2cc(C(=O)NC3CCOCC3)c(C)n2CC2CCCCC2)cc(C2(C)CC2)c1 [1/44] | 501 | 6.3/7.4/7.3 | 6.3/7.4/7.3 |  |  | 
Cc1c(C(N)=O)cc(-c2cc(C(C)(C)C)c3c(c2)C2(CCO3)CC2)n1CC1CCCCC1 [1/105] | 251 | 6.6/6.5/6.5 | 6.6/6.5/6.5 |  |  | 

SMILES | IC50 [1] [nM] | pIC50 (FF) (RORγ) | pIC50 (REN) (RORγ) | IC50 [1, 2] [nM] | pIC50 (FF) (RORγ; [3]) | pIC50 (REN) (RORγ; [4])
Cc1c(C(=O)N2CCS(=O)(=O)CC2)cc(-c2ccc(S(=O)(=O)NC(C)(C)C)c(C(F)(F)F)c2)n1CC1CCCCC1 [17/199] |  |  |  | 631 | 6.6 | 6.7
Cc1c(C(=O)N[C@H]2C[C@H](C(=O)O)C2)cc(-c2ccc(S(=O)(=O)NC(C)(C)C)c(C(C)(C)C)c2)n1CC1CCCCC1 [17/221] |  |  |  | 2000 | 7.1 | 7.1
Cc1c(C(=O)NCC2(O)COC2)cc(-c2cc(C(C)(C)C)c3c(c2)C2(CCO3)CC2)n1CC1CCCCC1 [17/36] |  |  |  | 794 | 6.9 | 6.9
Cc1c(C(=O)NC2COC2)cc(-c2cc(OCC(C)C)nc(C(C)(C)C)c2)n1CC1CCCCC1 [1/121] | 126 | 6.9/7.0/7.2 | 6.9/7.0/7.2 |  |  | 
Cc1c(C(N)=O)cc(-c2cc(C3CC3)cc(C(C)(C)C)c2)n1CC1CCCCC1 [Example 12, 5-(3-(tert-Butyl)-5-cyclopropylphenyl)-1-(cyclohexylmethyl)-2-methyl-1H-pyrrole-3-carboxamide] |  |  |  | 1000 | 6.1 | 6.2
Cc1c(C(=O)NC2CCOCC2)cc(-c2cc(Cl)c(S(N)(=O)=O)c(C(F)(F)F)c2)n1CC1CCCCC1 [19/1] |  |  |  | 501 | 6.8 | 6.8
Cc1c(C(=O)NC2CCOCC2)cc(-c2ccc(S(=O)(=O)NC(C)(C)C)c3ccccc23)n1CC1CCC1 [17/242] |  |  |  | 398 | 7.5 | 7.6
Cc1c(C(=O)NCC(C)(C)C(=O)O)cc(-c2cc(C(C)(C)C)nc(C(C)(C)C)n2)n1CC1CCCCC1 [17/353] |  |  |  | 2000 | 6.8 | 6.8
Cc1c(C(=O)NC2CCOCC2)cc(-c2ccc(S(=O)(=O)N[C@@H](C)C(F)(F)F)c(C(C)(C)C)c2)n1CC1CCCCC1 [17/151] |  |  |  | 316 | 8.3 | 8.3
Cc1c(C(=O)NCCCCCO)cc(-c2cc(C(C)(C)C)cc(C(C)(C)C)c2)n1CC1CCCCC1 [1/67] |  |  |  | 158 | 7.2 | 7.3
CCNC(=O)NC(C)(C)CNC(=O)c1cc(-c2cc(C(C)(C)C)c3c(c2)C2(CCO3)CC2)n(CC2CCCCC2)c1C [17/120] |  |  |  | 2510 | 6.1 | 6.0
Cc1c(C(=O)NCC2COC2)cc(-c2ccc(S(=O)(=O)NC(C)(C)C)c(C(C)(C)C)c2)n1CC1CCCCC1 [1/126] |  |  |  | 631 | 7.1 | 7.0
Cc1c(C(=O)N[C@H]2C[C@H](C(=O)O)C2)cc(-c2cc(C(C)(C)C)cc(C3(O)CC3)c2)n1CC1CCCCC1 [17/155] |  |  |  | 631 | 7.0 | 7.0
Cc1c(C(=O)NC2CCOCC2)cc(-c2cc(C(C)(C)C)c3c(c2)C2(CCO3)CC2)n1CC1CCCCC1 [1/93] |  |  |  | 200 | 7.4 | 7.4
Cc1c(C(=O)N[C@@H]2CCCOC2)cc(-c2ccc(S(=O)(=O)NC(C)(C)C)c(C(F)(F)F)c2)n1CC1CCCCC1 [17/138] |  |  |  | 200 | 7.1 | 7.3
Cc1c(S(=O)(=O)NC(C)(C)C)ccc(-c2cc(C(=O)NCC(C)(C)C(N)=O)c(C)n2CC2CCCCC2)c1Cl [17/371] |  |  |  | 631 | 8.0 | 8.0
Cc1c(C(=O)N[C@H]2C[C@H](C(=O)O)C2)cc(-c2cc(OC(F)(F)F)cc(C(=O)NC(C)(C)C)c2)n1CC1CCCCC1 [17/351] |  |  |  | 2000 | 6.8 | 6.9
